Measurements: patent publication US7858635B2 (priority 2005, dated 2010)

Assays:
[1] = molecular target: T1, M4 muscarinic receptor (Homo sapiens, UniProt P08173); assay: Functional mobilization of intracellular calcium (FLIPR, Fluo-3), M4-CHO cells; type: cell-based; details: compound nos. 1-454; for Emax: 100% efficacy is the maximum response obtained with the Carbachol control, read-out: M4 Efficacy; for M4 Activity: M4-CHO cells, calcium mobilization
T1 construct: expressed in transfected cells; host or cells: CHO cells (M4-CHO, under puromycin, zeocin and blasticidin selection)
T1 sequence (P08173 1-479): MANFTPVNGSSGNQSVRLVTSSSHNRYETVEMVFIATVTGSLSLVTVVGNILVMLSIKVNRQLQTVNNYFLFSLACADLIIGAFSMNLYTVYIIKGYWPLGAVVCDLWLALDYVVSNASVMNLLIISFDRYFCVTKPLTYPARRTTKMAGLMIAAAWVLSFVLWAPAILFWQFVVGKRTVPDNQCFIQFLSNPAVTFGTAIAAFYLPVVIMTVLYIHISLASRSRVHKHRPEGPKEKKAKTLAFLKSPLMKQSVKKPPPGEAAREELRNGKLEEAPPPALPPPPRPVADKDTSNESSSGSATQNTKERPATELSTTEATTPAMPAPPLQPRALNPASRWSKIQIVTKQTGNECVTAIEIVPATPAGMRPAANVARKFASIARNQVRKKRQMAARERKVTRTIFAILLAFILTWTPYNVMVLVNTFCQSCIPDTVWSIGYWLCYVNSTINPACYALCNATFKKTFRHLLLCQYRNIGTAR
Procedure, shortened: (§1)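 Fluo-3 read-out, ex 488/em 540 nm, 60 sec on FLIPR 3. For agonist mode, compound added directly; for inhibition, 15 min compound pre-incubation before carbachol at EC80 (added as a 3× solution), or co-application. Buffer pH 7.4 with 1 mM probenecid; DMSO 0.5%.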

[2] = molecular target: T2, M1 muscarinic receptor (Homo sapiens, UniProt P11229); assay: Functional mobilization of intracellular calcium (FLIPR, Fluo-3), M1-CHO cells; type: cell-based; details: compound nos. 1-454; for Emax: 100% efficacy is the maximum response obtained with the Carbachol control, read-out: M1 Efficacy; for M1 Activity: M1-CHO cells, calcium mobilization
T2 construct: expressed in transfected cells; host or cells: CHO cells (M1-CHO, under zeocin and G418 selection)
T2 sequence (P11229 1-460): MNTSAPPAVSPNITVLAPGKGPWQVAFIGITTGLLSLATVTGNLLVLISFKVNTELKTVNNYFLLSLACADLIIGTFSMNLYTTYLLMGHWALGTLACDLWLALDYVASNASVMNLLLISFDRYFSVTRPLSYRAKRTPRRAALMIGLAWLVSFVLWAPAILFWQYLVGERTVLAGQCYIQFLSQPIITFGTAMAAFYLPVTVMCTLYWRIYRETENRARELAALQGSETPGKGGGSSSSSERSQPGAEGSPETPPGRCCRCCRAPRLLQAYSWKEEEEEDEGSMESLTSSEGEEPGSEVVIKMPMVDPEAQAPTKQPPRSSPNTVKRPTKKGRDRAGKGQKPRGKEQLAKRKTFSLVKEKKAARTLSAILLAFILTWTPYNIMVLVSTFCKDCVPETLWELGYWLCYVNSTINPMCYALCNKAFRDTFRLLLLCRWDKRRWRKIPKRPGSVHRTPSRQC
Procedure, shortened: as §1

| SMILES | Emax [1] [%] | M4 Activity [1] | Emax [2] [%] | M1 Activity [2] |
| --- | --- | --- | --- | --- |
| CC(=O)N1CC2(CCN(C3CCN(C(=O)OC4CCC4)CC3)CC2)c2cc(C)ccc21 [compound 151] | > 70 | +++ (activity was measured to be less than or equal to 0.1 μM) | > 85 | +++ (activity was measured to be less than or equal to 0.7 μM) |
| Fc1ccc2c(c1)C1(CCN(C3CCCCC3)CC1)CO2 [compound 152] | > 70 | + (activity was measured to be greater than or equal to 4.0 μM) | 65 to 85 | ++ (activity was measured to be between 0.7 μM and 3.0 μM) |
| CCOC(=O)N1C2CCC1CC(N1CCC3(CC1)CNc1ccccc13)C2 (stereo not shown) [compound 153] | > 70 | +++ (activity was measured to be less than or equal to 0.1 μM) | > 85 | +++ (activity was measured to be less than or equal to 0.7 μM) |
| COC(=O)N1CCC(N2CCC3(CC2)CN(C(=O)N(C)C)c2ccc(F)cc23)CC1 [compound 154] | > 70 | +++ (activity was measured to be less than or equal to 0.1 μM) | 65 to 85 | +++ (activity was measured to be less than or equal to 0.7 μM) |
| Clc1ccc2c(c1)C1(CCN(C3CCCCC3)CC1)CN2 [compound 155] | > 70 | + (activity was measured to be greater than or equal to 4.0 μM) | > 85 | +++ (activity was measured to be less than or equal to 0.7 μM) |
| COC(=O)N1C2CCC1CC(N1CCC3(CC1)COc1ccc(F)cc13)C2 (stereo not shown) [compound 156] | > 70 | +++ (activity was measured to be less than or equal to 0.1 μM) | 65 to 85 | +++ (activity was measured to be less than or equal to 0.7 μM) |
| Clc1ccc2c(c1)C1(CCN(CC3CCCCC3)CC1)CN2 [compound 157] | > 70 | + (activity was measured to be greater than or equal to 4.0 μM) | 65 to 85 | +++ (activity was measured to be less than or equal to 0.7 μM) |
| CC(=O)N[C@H]1CC2(CCN([C@@H]3C[C@@H]4CC[C@@H]3C4)CC2)c2ccccc21 [compound 158] | > 70 | + (activity was measured to be greater than or equal to 4.0 μM) | > 85 | +++ (activity was measured to be less than or equal to 0.7 μM) |
| CC(=O)NC1CC2(CCN(C3CCCCCC3)CC2)c2ccccc21 (stereo not shown) [compound 159] | > 70 | + (activity was measured to be greater than or equal to 4.0 μM) | > 85 | ++ (activity was measured to be between 0.7 μM and 3.0 μM) |
| CC(C)COC(=O)N1C2CCC1CC(N1CCC3(CC1)COc1ccc(F)cc13)C2 (stereo not shown) [compound 160] | > 70 | ++ (activity was measured to be between 0.1 μM and 4.0 μM) | > 85 | +++ (activity was measured to be less than or equal to 0.7 μM) |
| CC(=O)NC1CC2(CCN(C[C@H]3C[C@H]4CC[C@H]3C4)CC2)c2ccccc21 (stereo partly shown) [compound 161] | > 70 | + (activity was measured to be greater than or equal to 4.0 μM) | > 85 | ++ (activity was measured to be between 0.7 μM and 3.0 μM) |
| CC(=O)N1CC2(CCN(CC3=CCCCC3)CC2)c2cc(F)ccc21 [compound 163] | > 70 | ++ (activity was measured to be between 0.1 μM and 4.0 μM) | 65 to 85 | +++ (activity was measured to be less than or equal to 0.7 μM) |
| Clc1ccc2c(c1)C1(CCO2)CCN(C[C@@H]2C[C@H]3C=C[C@H]2C3)CC1 [compound 164] | > 70 | + (activity was measured to be greater than or equal to 4.0 μM) | > 85 | ++ (activity was measured to be between 0.7 μM and 3.0 μM) |
| CCOC(=O)N1CCC(N2CCC3(CC2)CN(C(C)=O)c2ccc(-c4ccsc4)cc23)CC1 [compound 165] | > 70 | + (activity was measured to be greater than or equal to 4.0 μM) | 65 to 85 | + (activity was measured to be greater than or equal to 3.0 μM) |
| CC(C)OC(=O)N1C2CCC1CC(N1CCC3(CC1)CN(C(=O)OC1CCC1)c1ccc(F)cc13)C2 (stereo not shown) [compound 166] | > 70 | + (activity was measured to be greater than or equal to 4.0 μM) | > 85 | +++ (activity was measured to be less than or equal to 0.7 μM) |
| CCOC(=O)N1C2CCC1CC(N1CCC3(CC1)CN(C(=O)OC)c1ccc(F)cc13)C2 (stereo not shown) [compound 167] | > 70 | ++ (activity was measured to be between 0.1 μM and 4.0 μM) | 65 to 85 | +++ (activity was measured to be less than or equal to 0.7 μM) |
| CC(=O)N1CC2(CCN(C3CCCN(C(=O)OCCF)CC3)CC2)c2cc(F)ccc21 (stereo not shown) [compound 168] | > 70 | ++ (activity was measured to be between 0.1 μM and 4.0 μM) | – | ++ (activity was measured to be between 0.7 μM and 3.0 μM) |
| CCOC(=O)N1CCC(N2CCC3(CC2)CN(C(=O)N(C)c2ccccc2)c2ccc(F)cc23)CC1 [compound 169] | > 70 | + (activity was measured to be greater than or equal to 4.0 μM) | 65 to 85 | +++ (activity was measured to be less than or equal to 0.7 μM) |
| CC(C)OC(=O)N1C2CCC1CC(N1CCC3(CC1)CN(S(C)(=O)=O)c1ccc(F)cc13)C2 (stereo not shown) [compound 170] | > 70 | + (activity was measured to be greater than or equal to 4.0 μM) | 65 to 85 | ++ (activity was measured to be between 0.7 μM and 3.0 μM) |
| CC(=O)N[C@@H]1CC2(CCN([C@H]3C[C@@H]4CC[C@H]3C4)CC2)c2ccccc21 [compound 171] | 55 to 70 | + (activity was measured to be greater than or equal to 4.0 μM) | > 85 | ++ (activity was measured to be between 0.7 μM and 3.0 μM) |
| CC(=O)N1CC2(CCN(C3CCN(C(=O)OCCF)CC3)CC2)c2cc(F)ccc21 [compound 172] | 55 to 70 | + (activity was measured to be greater than or equal to 4.0 μM) | > 85 | + (activity was measured to be greater than or equal to 3.0 μM) |
| CCOC(=O)N1CCC(N2CCC3(CC2)CN(C(=O)OC)c2ccc(F)cc23)CC1 [compound 173] | > 70 | ++ (activity was measured to be between 0.1 μM and 4.0 μM) | 65 to 85 | +++ (activity was measured to be less than or equal to 0.7 μM) |
| CC(=O)N1CC2(CCN(C3CC4CCC(C3)N4C(=O)OC3CCC3)CC2)c2cc(F)ccc21 (stereo not shown) [compound 174] | 55 to 70 | + (activity was measured to be greater than or equal to 4.0 μM) | > 85 | +++ (activity was measured to be less than or equal to 0.7 μM) |
| Fc1ccc2c(c1)C1(CCN([C@@H]3C[C@@H]4CC[C@H]3C4)CC1)CO2 [compound 175] | 55 to 70 | ++ (activity was measured to be between 0.1 μM and 4.0 μM) | 65 to 85 | +++ (activity was measured to be less than or equal to 0.7 μM) |
| CCOC(=O)N1CCC(CN2CCC3(CC2)COc2ccc(Cl)cc23)CC1 [compound 176] | 55 to 70 | ++ (activity was measured to be between 0.1 μM and 4.0 μM) | > 85 | ++ (activity was measured to be between 0.7 μM and 3.0 μM) |
| CCOC(=O)N1CCC(N2CCC3(CC2)CN(C(C)=O)c2ccc(-c4ccc(S(C)(=O)=O)cc4)cc23)CC1 [compound 177] | 55 to 70 | ++ (activity was measured to be between 0.1 μM and 4.0 μM) | 65 to 85 | +++ (activity was measured to be less than or equal to 0.7 μM) |
